Results from patent publication US20120184517A1, “TREATMENT OF DISEASES WITH ALTERED SMOOTH MUSCLE CONTRACTILITY” (priority 2009, published 2012).

Key:
[1] = molecular target: maxi-K potassium channels (Homo sapiens, UniProt Q12791); details: 50 nM intracellular Ca2+; cited from earlier work
[2] = tested on: rat stroke models; details: in vivo; cited from earlier work
[3] = tested on: WT tracheal rings; assay: Isoproterenol-induced relaxation of WT tracheal rings on a myograph; assay type: cell-based, murine; details: pre-incubation with β2-AR antagonist 100 nM
Method: (n=4 each). Asterisk (*) indicates P<0.05 versus vehicle (DMSO). […] Cumulative dose-response curves of WT tracheal rings to isoproterenol in the absence and presence of 100 nM iberiotoxin (IbTX), a specific BK channel inhibitor. Values in graphs are means±standard deviation.
In this experiment, murine tracheal smooth muscle cells were acutely isolated and whole cell patch clamped as previously described (Zakharov, S. et al., (2005) J Biol Chem 280, 30882-30887).
To dissect which (or both) β-AR pathways are responsible for the effects, tracheal rings were pre-incubated with either β1-AR antagonist (CGP 20712A; 100 nM) or a β2-AR antagonist (ICI 118551; 100 nM) or vehicle (DMSO). […] To confirm that the isoproterenol-induced relaxation was dependent upon BK channel-induced hyperpolarization, IbTX, a specific inhibitor of the BK channel, was used.

[4] = not told; cited from earlier work
[5] = molecular target: T1, BKCa channel (Homo sapiens, UniProt Q12791); details: cytoplasmic side; cited from earlier work
T1 sequence (Q12791 whole entry): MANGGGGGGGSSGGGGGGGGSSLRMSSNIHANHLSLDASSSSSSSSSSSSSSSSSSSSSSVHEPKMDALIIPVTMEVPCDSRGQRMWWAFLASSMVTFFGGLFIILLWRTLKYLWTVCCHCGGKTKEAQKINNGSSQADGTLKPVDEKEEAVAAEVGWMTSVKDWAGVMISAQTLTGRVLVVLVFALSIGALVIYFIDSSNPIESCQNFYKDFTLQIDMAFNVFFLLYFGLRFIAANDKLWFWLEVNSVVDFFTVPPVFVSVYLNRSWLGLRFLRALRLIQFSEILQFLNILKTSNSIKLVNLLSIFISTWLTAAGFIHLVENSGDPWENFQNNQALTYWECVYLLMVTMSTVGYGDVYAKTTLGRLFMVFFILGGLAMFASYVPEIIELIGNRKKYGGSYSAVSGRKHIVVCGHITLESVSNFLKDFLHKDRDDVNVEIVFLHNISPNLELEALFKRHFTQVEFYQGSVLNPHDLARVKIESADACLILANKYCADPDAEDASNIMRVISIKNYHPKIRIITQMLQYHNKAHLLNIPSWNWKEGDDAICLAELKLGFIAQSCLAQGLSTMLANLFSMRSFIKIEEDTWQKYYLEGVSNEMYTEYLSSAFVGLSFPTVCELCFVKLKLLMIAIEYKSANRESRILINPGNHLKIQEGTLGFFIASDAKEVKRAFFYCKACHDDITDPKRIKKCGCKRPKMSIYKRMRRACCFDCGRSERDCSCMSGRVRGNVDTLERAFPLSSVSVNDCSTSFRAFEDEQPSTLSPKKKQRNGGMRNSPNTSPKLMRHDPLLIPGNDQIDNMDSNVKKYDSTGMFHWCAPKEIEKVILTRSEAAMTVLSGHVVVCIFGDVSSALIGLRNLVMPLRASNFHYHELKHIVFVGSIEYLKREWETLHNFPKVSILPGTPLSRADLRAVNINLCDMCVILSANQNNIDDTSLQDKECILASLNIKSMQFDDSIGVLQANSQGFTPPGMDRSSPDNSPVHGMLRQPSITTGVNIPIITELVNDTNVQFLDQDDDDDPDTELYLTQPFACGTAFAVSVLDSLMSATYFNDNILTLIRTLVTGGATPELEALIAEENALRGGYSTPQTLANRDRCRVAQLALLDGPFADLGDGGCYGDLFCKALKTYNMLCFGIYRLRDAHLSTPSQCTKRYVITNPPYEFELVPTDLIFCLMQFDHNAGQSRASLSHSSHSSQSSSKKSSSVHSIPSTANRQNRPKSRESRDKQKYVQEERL

[6] = molecular target: T2, BKCa channel in porcine coronary artery cells (Sus scrofa, UniProt O18866); details: cited from earlier work
T2 construct: host or cells: porcine coronary artery cells
T2 sequence (O18866 whole entry): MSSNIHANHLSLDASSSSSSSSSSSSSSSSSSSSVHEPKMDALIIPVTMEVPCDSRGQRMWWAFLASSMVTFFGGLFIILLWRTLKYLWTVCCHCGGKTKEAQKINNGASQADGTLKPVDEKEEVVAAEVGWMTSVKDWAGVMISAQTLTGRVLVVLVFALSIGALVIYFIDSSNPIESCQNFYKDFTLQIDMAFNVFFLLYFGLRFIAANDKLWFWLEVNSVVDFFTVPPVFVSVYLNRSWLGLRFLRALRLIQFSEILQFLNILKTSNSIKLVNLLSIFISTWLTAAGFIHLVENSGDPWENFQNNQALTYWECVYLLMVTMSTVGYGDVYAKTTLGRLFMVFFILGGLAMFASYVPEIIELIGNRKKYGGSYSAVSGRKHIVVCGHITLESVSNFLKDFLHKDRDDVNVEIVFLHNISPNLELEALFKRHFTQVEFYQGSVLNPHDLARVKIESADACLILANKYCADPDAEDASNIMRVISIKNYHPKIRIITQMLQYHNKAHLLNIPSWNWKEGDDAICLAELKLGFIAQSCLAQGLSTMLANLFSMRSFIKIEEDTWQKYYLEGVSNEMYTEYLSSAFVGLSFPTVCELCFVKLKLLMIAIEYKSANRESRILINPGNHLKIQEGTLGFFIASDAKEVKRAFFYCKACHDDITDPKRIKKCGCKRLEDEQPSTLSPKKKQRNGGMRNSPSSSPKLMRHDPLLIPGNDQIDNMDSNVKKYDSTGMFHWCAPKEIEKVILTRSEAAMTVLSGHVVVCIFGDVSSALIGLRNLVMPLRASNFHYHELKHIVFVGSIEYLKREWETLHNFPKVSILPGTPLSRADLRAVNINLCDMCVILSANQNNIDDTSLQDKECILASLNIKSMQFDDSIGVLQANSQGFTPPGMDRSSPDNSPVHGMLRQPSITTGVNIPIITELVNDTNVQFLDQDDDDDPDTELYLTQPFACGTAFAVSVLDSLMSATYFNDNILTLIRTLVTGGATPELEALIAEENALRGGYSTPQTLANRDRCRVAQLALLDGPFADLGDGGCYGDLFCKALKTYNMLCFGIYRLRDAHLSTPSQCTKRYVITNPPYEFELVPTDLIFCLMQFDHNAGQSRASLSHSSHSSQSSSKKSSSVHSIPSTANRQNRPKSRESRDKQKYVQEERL

[7] = tested on: 2K-1C hypertensive rats; details: hypertensive rat model compared to controls; cited from earlier work
[8] = tested on: porcine coronary myocytes; details: 30 μM; cited from earlier work
[9] = molecular target: T3, BKCa channel (mSlo) (Mus musculus, UniProt Q08460); assay: Whole cell patch clamp of HEK293 cells stably transfected with mSlo; assay type: cell-based, murine
T3 construct: expressed in transfected cells
T3 sequence (Q08460 whole entry): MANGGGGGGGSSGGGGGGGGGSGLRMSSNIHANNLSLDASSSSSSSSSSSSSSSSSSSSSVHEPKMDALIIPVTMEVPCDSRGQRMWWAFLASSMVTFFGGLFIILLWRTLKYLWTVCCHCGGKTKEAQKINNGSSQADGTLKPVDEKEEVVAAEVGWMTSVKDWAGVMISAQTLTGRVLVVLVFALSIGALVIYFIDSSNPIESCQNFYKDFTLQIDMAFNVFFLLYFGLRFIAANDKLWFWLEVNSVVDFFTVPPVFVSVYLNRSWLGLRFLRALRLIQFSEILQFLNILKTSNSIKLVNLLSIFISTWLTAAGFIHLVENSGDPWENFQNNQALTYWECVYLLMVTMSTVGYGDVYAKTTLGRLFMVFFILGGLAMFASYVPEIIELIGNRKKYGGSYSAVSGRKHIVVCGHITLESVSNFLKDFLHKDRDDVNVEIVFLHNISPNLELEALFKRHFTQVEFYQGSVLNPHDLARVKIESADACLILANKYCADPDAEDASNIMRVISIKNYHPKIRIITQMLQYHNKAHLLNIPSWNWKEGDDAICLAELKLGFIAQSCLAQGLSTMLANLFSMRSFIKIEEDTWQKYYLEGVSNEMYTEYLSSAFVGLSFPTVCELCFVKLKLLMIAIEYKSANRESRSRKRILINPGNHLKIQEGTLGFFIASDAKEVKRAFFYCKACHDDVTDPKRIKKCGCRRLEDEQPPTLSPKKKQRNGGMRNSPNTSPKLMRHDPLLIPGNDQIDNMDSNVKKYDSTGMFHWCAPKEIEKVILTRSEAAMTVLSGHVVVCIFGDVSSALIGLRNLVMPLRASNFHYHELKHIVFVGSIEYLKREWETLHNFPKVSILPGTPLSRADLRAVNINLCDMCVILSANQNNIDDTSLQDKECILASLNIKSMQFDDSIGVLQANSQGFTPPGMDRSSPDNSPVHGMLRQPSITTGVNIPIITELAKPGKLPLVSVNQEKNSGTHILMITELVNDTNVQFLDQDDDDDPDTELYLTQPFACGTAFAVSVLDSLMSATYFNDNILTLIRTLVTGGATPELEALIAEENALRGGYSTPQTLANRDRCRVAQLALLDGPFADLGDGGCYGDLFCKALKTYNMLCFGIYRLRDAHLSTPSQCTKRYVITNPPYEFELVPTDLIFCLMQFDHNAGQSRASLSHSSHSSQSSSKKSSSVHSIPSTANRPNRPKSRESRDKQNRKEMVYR
Method: FIGS. 4A and 4B show representative current traces from whole cell patches with 5 mM EGTA in patch pipette. […] Voltage steps are shown at the right of each tracing; note the different maximum voltage steps +200 mV (upper) vs. +120 mV (lower). […] FIG. 4C G-V curves were constructed for indicated conditions utilizing tail analysis (Xia, et al., Multiple regulatory sites in large-conductance calcium-activated potassium channels. Nature, 2002. 418(6900):880-4). Solid lines were fitted with Boltzmann function. […] FIGS. 4D and 4E show experiments studying stable mslo HEK293 cells in whole cell configuration with a pipette solution containing 5 mM EGTA (˜0 free Ca^2+).
Current in the diary plot in FIG. 5B represents maximal current in ramp protocol at +70 mV. Holding potential of ramp was −20 mV, with ramp from −30 mV to +180 mV over 500 ms. The G-V curve in FIG. 5C was generated from the tail analysis as described in FIG. 4.
(§1) Current was monitored with a ramp protocol; holding potential −60 mV, with ramp from −80 mV to +150 mV over 500 ms. […] Analysis was performed using tail analysis with normalization as previously described (Xia, et al., Multiple regulatory sites in large-conductance calcium-activated potassium channels. Nature, 2002. 418(6900):880-4). […] Identification of the BKCa channel was determined by conductance and inhibition by iberiotoxin and TEA. […] Murine femoral arterial rings were isolated and placed in a wire myograph. […] The figures shown are representative of 4 similar experiments. Error bars are standard error of the mean (SEM). Asterisk (*) indicates p<0.001.

[10] = tested on: murine femoral arterial rings; assay type: cell-based
Method: as §1

[11] = molecular target: T4, BK currents in tracheal ASM cells (Mus musculus, UniProt Q08460); assay: Perforated whole cell voltage clamp of acutely isolated tracheal ASM, outward K+ current; assay type: cell-based; details: 0.5 μM ISO
T4 construct: The effect of ISO on BK currents in acutely isolated tracheal ASM was also determined; endogenous in cells; host or cells: acutely isolated tracheal airway smooth muscle cells
T4 sequence (Q08460 whole entry): as above
T4 sequence (Q8CAE3 whole entry partner): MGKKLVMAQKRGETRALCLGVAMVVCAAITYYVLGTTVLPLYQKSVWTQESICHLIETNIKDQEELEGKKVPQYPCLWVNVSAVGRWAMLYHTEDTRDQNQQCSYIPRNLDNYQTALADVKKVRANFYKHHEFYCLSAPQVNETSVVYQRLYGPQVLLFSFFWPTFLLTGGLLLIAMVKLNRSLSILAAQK
Method: FIG. 23A is a diary plot of current recorded during repetitive stimulation by depolarizing ramps every 5 seconds to +200 mV from a holding potential of −20 mV. ISO and ISO+IbTX exposure are indicated by bars at bottom of plot. Dashed line indicates average control current.
The effect of ISO on BK currents in acutely isolated tracheal ASM was also determined. ASM cells were studied using perforated whole cell voltage clamp. After obtaining access, outward K^+ current was monitored using a 0.5 second ramp, from a holding potential of −20 mV to +200 mV. […] Under the conditions used, the majority of the outward K^+ current is conducted by the BK channel, as shown by IbTX-blockade (FIGS. 23A and 23B).

[12] = tested on: tracheal rings; assay: Isoproterenol-induced relaxation of tracheal rings from PBS- and OVA-sensitized animals; assay type: cell-based, murine; details: no rottlerin
Method: The isoproterenol-induced relaxation of tracheal rings from OVA-sensitized asthmatic animals was also tested. After induction of asthma, tracheal rings were removed and mounted on the myograph. […] At the conclusion of the experiment, each tracheal ring was exposed to methacholine to ensure viability of the ring and equivalent constriction.
After induction of asthma, tracheal rings were removed and mounted on the myograph. […] The ISO-relaxation curve was shifted downward and to the right, with the maximal relaxation response reduced to only ˜25% from more than 60%.

[13] = molecular target: T1, BKCa channel; details: cited from earlier work
[14] = tested on: dilation to forskolin; details: cited from earlier work

maxi-K potassium channels, sequence (Q12791 whole entry): as the sequence (Q12791 whole entry) above

## COc1ccc(Cl)cc1[C@]1(F)C(=O)Nc2cc(C(F)(F)F)ccc21 [BMS-204352]
[1]
  effect on current: almost no effect
[2]
  brain infarct size: reduction in brain infarct size

## Cc1ccc(OCC(O)C(C)NC(C)C)c2c1CCC2 (centres unmarked) [ICI 118551, reference compound]
[3]
  isoproterenol dose-response curve: rightward shift in the dose-response curve

## C=C[C@]1(C)C=C2CC[C@@]3(O)C(C)(C)CC[C@H](O)[C@]3(C)C2CC1 (some centres unmarked) [Maxikdiol]
[4]
  membrane permeability: limited
[5]
  concentration of significant effect: 3 to 10 µM
  threshold of channel activation: 1 µM

## O=C(Nc1cccc(C(F)(F)F)c1)Nc1cc(Cl)ccc1O [NS1608]
[6]; 50 μM
  effect at higher concentrations: inhibitory effect
[6]
  concentration of maximum activation: 5 to 10 µM
  minimum effective concentration: 0.5 µM

## O=c1[nH]c2cc(C(F)(F)F)ccc2n1-c1cc(C(F)(F)F)ccc1O [NS-1619]
[7]
  efficacy in mediating vascular relaxation: diminished
[8]
  intracellular Ca2+ concentration: increase intracellular Ca^2+ concentration
[9]; NS-1619 10 μM extracellular
  peak K+ current: activated peak K^+ current

## CC[N+](CC)(CC)CC [TEA, tetraethylammonium, reference compound]
[10]
  effect on the rottlerin mediated effect: inhibited
[9]
  effect on rottlerin induced BKCa activation: reversibly inhibited

## CC(C)NCC(O)c1ccc(O)c(O)c1 (centres unmarked) [isoproterenol, reference compound]
[11]
  increase of outward K+ current: more than 50%
[12]; OVA-sensitized rings
  maximal relaxation response to isoproterenol: ~25%
[12]; control rings
  maximal relaxation response to isoproterenol: more than 60%

## CC1(C)C[C@@H](O)[C@]2(C)CC[C@]3(C)C(=CC[C@@H]4[C@@]5(C)CC[C@H](O[C@@H]6O[C@H](C(=O)O)[C@@H](O)[C@H](O)[C@H]6O[C@@H]6O[C@H](CO)[C@H](O)[C@H](O)[C@H]6O)[C@](C)(CO)[C@@H]5CC[C@]43C)[C@@H]2C1 [soyasaponin III]
[13]
  BKCa channel activation: activate BKCa channels

## C[C@@H]1O[C@@H](O[C@H]2[C@H](O[C@H]3[C@H](O[C@H]4CC[C@@]5(C)[C@@H](CC[C@]6(C)[C@@H]5CC=C5[C@@H]7CC(C)(C)C[C@@H](O)[C@]7(C)CC[C@]56C)[C@@]4(C)CO)O[C@H](C(=O)O)[C@@H](O)[C@@H]3O)O[C@H](CO)[C@H](O)[C@@H]2O)[C@H](O)[C@H](O)[C@H]1O [soyasaponin I]
[13]
  BKCa channel activation: activate BKCa channels

## Ryanodine
[14]
  reduction of dilation to forskolin: 80%

## dehydrosoyasaponin-I [DHS-I]
[13]
  BKCa channel activation: activate BKCa channels
  channel activity with α and β subunits co-expressed: increases channel activity
[4]
  membrane permeability: poor
